Numbers after ± are expanded uncertainties.
Legend:
[1] = Crystal
[2] = Molar enthalpy of transition or fusion; conditions: Crystal
[3] = molar heat capacity at constant pressure; conditions: 101.33 kPa

Row | Structure (SMILES) | Triple point temperature [1] [K] | Molar enthalpy of transition or fusion [2] [kcal/mol] | molar heat capacity at constant pressure ([3]; 5 K, Crystal) [J/K/mol] | molar heat capacity at constant pressure ([3]; 10 K, Crystal) [J/K/mol] | molar heat capacity at constant pressure ([3]; 20 K, Crystal) [J/K/mol] | molar heat capacity at constant pressure ([3]; 30 K, Crystal) [J/K/mol] | molar heat capacity at constant pressure ([3]; 40 K, Crystal) [J/K/mol] | molar heat capacity at constant pressure ([3]; 50 K, Crystal) [J/K/mol] | molar heat capacity at constant pressure ([3]; 60 K, Crystal) [J/K/mol] | molar heat capacity at constant pressure ([3]; 70 K, Crystal) [J/K/mol] | molar heat capacity at constant pressure ([3]; 80 K, Crystal) [J/K/mol] | molar heat capacity at constant pressure ([3]; 90 K, Crystal) [J/K/mol] | molar heat capacity at constant pressure ([3]; 100 K, Crystal) [J/K/mol] | molar heat capacity at constant pressure ([3]; 110 K, Crystal) [J/K/mol] | molar heat capacity at constant pressure ([3]; 120 K, Crystal) [J/K/mol] | molar heat capacity at constant pressure ([3]; 130 K, Crystal) [J/K/mol] | molar heat capacity at constant pressure ([3]; 140 K, Crystal) [J/K/mol] | molar heat capacity at constant pressure ([3]; 150 K, Crystal) [J/K/mol] | molar heat capacity at constant pressure ([3]; 160 K, Crystal) [J/K/mol] | molar heat capacity at constant pressure ([3]; 170 K, Crystal) [J/K/mol] | also measured
1 | CCCCCCCCC(=O)OC [methyl nonanoate] | 238.72 ± 0.16 | 6.53 ± 0.122 | 0.39 ± 0.03 | 2.96 ± 0.07 | 17.17 ± 0.21 | 34.66 ± 0.22 | 53.39 ± 0.3 | 71.31 ± 0.37 | 86.46 ± 0.43 | 100.55 ± 0.48 | 113.08 ± 0.53 | 123.98 ± 0.65 | 134.32 ± 0.67 | 143.79 ± 0.69 | 152.28 ± 0.7 | 160.47 ± 0.72 | 168.48 ± 0.74 | 175.96 ± 0.75 | 183.23 ± 0.77 | 190.85 ± 0.78 | molar heat capacity at constant pressure ([3]; 180 K, Crystal): 198.49 ± 0.8 J/K/mol; molar heat capacity at constant pressure ([3]; 190 K, Crystal): 206.56 ± 0.81 J/K/mol; molar heat capacity at constant pressure ([3]; 200 K, Crystal): 215.27 ± 0.83 J/K/mol; molar heat capacity at constant pressure ([3]; 210 K, Crystal): 224.62 ± 0.85 J/K/mol; molar heat capacity at constant pressure ([3]; 220 K, Crystal): 236.53 ± 0.87 J/K/mol; molar heat capacity at constant pressure ([3]; 230 K, Crystal): 265.31 ± 0.93 J/K/mol; molar heat capacity at constant pressure ([3]; 240 K, Liquid): 330.8 ± 1.1 J/K/mol; molar heat capacity at constant pressure ([3]; 250 K, Liquid): 330.84 ± 1.1 J/K/mol; molar heat capacity at constant pressure ([3]; 260 K, Liquid): 333.42 ± 1.1 J/K/mol; molar heat capacity at constant pressure ([3]; 270 K, Liquid): 335.9 ± 1.1 J/K/mol; molar heat capacity at constant pressure ([3]; 280 K, Liquid): 338.72 ± 1.1 J/K/mol; molar heat capacity at constant pressure ([3]; 290 K, Liquid): 342.82 ± 1.1 J/K/mol; molar heat capacity at constant pressure ([3]; 300 K, Liquid): 346.27 ± 1.1 J/K/mol; molar heat capacity at constant pressure ([3]; 310 K, Liquid): 350.79 ± 1.1 J/K/mol; molar heat capacity at constant pressure ([3]; 320 K, Liquid): 354.3 ± 1.1 J/K/mol; molar heat capacity at constant pressure ([3]; 330 K, Liquid): 359.1 ± 1.1 J/K/mol; molar heat capacity at constant pressure ([3]; 340 K, Liquid): 363.82 ± 1.1 J/K/mol; molar heat capacity at constant pressure ([3]; 350 K, Liquid): 368.16 ± 1.1 J/K/mol
2 | CCCCCCCCCCCCCCCCCC(=O)OC [methyl octadecanoate] | 311.84 ± 0.16 | 15.86 ± 0.129 | 0.82 ± 0.04 | 5.96 ± 0.12 | 26.2 ± 0.32 | 52.72 ± 0.3 | 82.6 ± 0.41 | 112.11 ± 0.53 | 137.8 ± 0.63 | 162.71 ± 0.73 | 182.89 ± 0.81 | 201.46 ± 0.8 | 217.35 ± 0.84 | 234.15 ± 0.87 | 248.17 ± 0.9 | 261.72 ± 0.92 | 274.54 ± 0.95 | 286.99 ± 0.97 | 299.33 ± 1 | 312.93 ± 1 | molar heat capacity at constant pressure ([3]; 180 K, Crystal): 327.18 ± 1.1 J/K/mol; molar heat capacity at constant pressure ([3]; 190 K, Crystal): 341.65 ± 1.1 J/K/mol; molar heat capacity at constant pressure ([3]; 200 K, Crystal): 354.7 ± 1.1 J/K/mol; molar heat capacity at constant pressure ([3]; 210 K, Crystal): 368.18 ± 1.1 J/K/mol; molar heat capacity at constant pressure ([3]; 220 K, Crystal): 382.77 ± 1.2 J/K/mol; molar heat capacity at constant pressure ([3]; 230 K, Crystal): 397.82 ± 1.2 J/K/mol; molar heat capacity at constant pressure ([3]; 240 K, Crystal): 413.11 ± 1.2 J/K/mol; molar heat capacity at constant pressure ([3]; 250 K, Crystal): 428.51 ± 1.3 J/K/mol; molar heat capacity at constant pressure ([3]; 260 K, Crystal): 446.92 ± 1.3 J/K/mol; molar heat capacity at constant pressure ([3]; 270 K, Crystal): 468.64 ± 1.3 J/K/mol; molar heat capacity at constant pressure ([3]; 280 K, Crystal): 497.34 ± 1.4 J/K/mol; molar heat capacity at constant pressure ([3]; 290 K, Crystal): 541.05 ± 1.5 J/K/mol; molar heat capacity at constant pressure ([3]; 320 K, Liquid): 639 ± 1.7 J/K/mol; molar heat capacity at constant pressure ([3]; 330 K, Liquid): 646.44 ± 1.7 J/K/mol; molar heat capacity at constant pressure ([3]; 340 K, Liquid): 655.14 ± 1.7 J/K/mol; molar heat capacity at constant pressure ([3]; 350 K, Liquid): 664.03 ± 1.7 J/K/mol
3 | CCCCCCCCCCCCCCCCCCCC(=O)OC [methyl eicosanoate] | 319.48 ± 0.16 | 18.83 ± 0.131 | 0.75 ± 0.04 | 5.46 ± 0.11 | 28.85 ± 0.35 | 56.97 ± 0.31 | 89.89 ± 0.44 | 122.31 ± 0.57 | 149.98 ± 0.68 | 176.8 ± 0.79 | 199.8 ± 0.88 | 220.14 ± 0.84 | 235.76 ± 0.87 | 255.12 ± 0.91 | 271.01 ± 0.94 | 285.48 ± 0.97 | 299.45 ± 1 | 313.11 ± 1 | 326.52 ± 1.1 | 339.86 ± 1.1 | molar heat capacity at constant pressure ([3]; 180 K, Crystal): 353.31 ± 1.1 J/K/mol; molar heat capacity at constant pressure ([3]; 190 K, Crystal): 366.99 ± 1.1 J/K/mol; molar heat capacity at constant pressure ([3]; 200 K, Crystal): 381.11 ± 1.2 J/K/mol; molar heat capacity at constant pressure ([3]; 210 K, Crystal): 395.71 ± 1.2 J/K/mol; molar heat capacity at constant pressure ([3]; 220 K, Crystal): 411.05 ± 1.2 J/K/mol; molar heat capacity at constant pressure ([3]; 230 K, Crystal): 427.04 ± 1.2 J/K/mol; molar heat capacity at constant pressure ([3]; 240 K, Crystal): 443.77 ± 1.3 J/K/mol; molar heat capacity at constant pressure ([3]; 250 K, Crystal): 461.58 ± 1.3 J/K/mol; molar heat capacity at constant pressure ([3]; 260 K, Crystal): 480.5 ± 1.4 J/K/mol; molar heat capacity at constant pressure ([3]; 270 K, Crystal): 501.55 ± 1.4 J/K/mol; molar heat capacity at constant pressure ([3]; 280 K, Crystal): 525.09 ± 1.4 J/K/mol; molar heat capacity at constant pressure ([3]; 290 K, Crystal): 551.06 ± 1.5 J/K/mol; molar heat capacity at constant pressure ([3]; 300 K, Crystal): 585.33 ± 1.6 J/K/mol; molar heat capacity at constant pressure ([3]; 330 K, Liquid): 714.47 ± 1.8 J/K/mol; molar heat capacity at constant pressure ([3]; 340 K, Liquid): 722.28 ± 1.8 J/K/mol; molar heat capacity at constant pressure ([3]; 350 K, Liquid): 732.2 ± 1.9 J/K/mol
4 | CCCCCCCCCCC(=O)OC [methyl undecanoate] | 261.8 ± 0.16 | 8.65 ± 0.122 | 0.42 ± 0.03 | 3.28 ± 0.08 | 18.49 ± 0.23 | 38.09 ± 0.24 | 59.59 ± 0.32 | 80.21 ± 0.4 | 97.96 ± 0.47 | 113.74 ± 0.54 | 128.03 ± 0.59 | 141.39 ± 0.68 | 152.92 ± 0.71 | 163.81 ± 0.73 | 173.57 ± 0.75 | 182.89 ± 0.77 | 191.72 ± 0.78 | 200.53 ± 0.8 | 209.38 ± 0.82 | 217.78 ± 0.84 | molar heat capacity at constant pressure ([3]; 180 K, Crystal): 226.5 ± 0.85 J/K/mol; molar heat capacity at constant pressure ([3]; 190 K, Crystal): 235.38 ± 0.87 J/K/mol; molar heat capacity at constant pressure ([3]; 200 K, Crystal): 244.52 ± 0.89 J/K/mol; molar heat capacity at constant pressure ([3]; 210 K, Crystal): 253.93 ± 0.91 J/K/mol; molar heat capacity at constant pressure ([3]; 220 K, Crystal): 264.97 ± 0.93 J/K/mol; molar heat capacity at constant pressure ([3]; 230 K, Crystal): 276.95 ± 0.95 J/K/mol; molar heat capacity at constant pressure ([3]; 240 K, Crystal): 291.77 ± 0.98 J/K/mol; molar heat capacity at constant pressure ([3]; 250 K, Crystal): 320.5 ± 1 J/K/mol; molar heat capacity at constant pressure ([3]; 270 K, Liquid): 395.83 ± 1.2 J/K/mol; molar heat capacity at constant pressure ([3]; 280 K, Liquid): 398.95 ± 1.2 J/K/mol; molar heat capacity at constant pressure ([3]; 290 K, Liquid): 402.95 ± 1.2 J/K/mol; molar heat capacity at constant pressure ([3]; 300 K, Liquid): 406.99 ± 1.2 J/K/mol; molar heat capacity at constant pressure ([3]; 310 K, Liquid): 411.22 ± 1.2 J/K/mol; molar heat capacity at constant pressure ([3]; 320 K, Liquid): 416.08 ± 1.2 J/K/mol; molar heat capacity at constant pressure ([3]; 330 K, Liquid): 421.78 ± 1.2 J/K/mol; molar heat capacity at constant pressure ([3]; 340 K, Liquid): 426.55 ± 1.2 J/K/mol; molar heat capacity at constant pressure ([3]; 350 K, Liquid): 431.52 ± 1.3 J/K/mol

Source: the NIST ThermoML archive (doi:10.1021/je0499364)
